In PubChem BioAssay (NCI):
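Method: 48-hour compound exposure of cells in 96-well plates, five concentrations, linear interpolation of endpoints. TGI: total growth inhibition.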

Columns and labels:
Assay in all cases: DTP human tumour cell line panel, 48 h
LOX IMVI melanoma = system: LOX IMVI melanoma
MOLT-4 leukemia = system: MOLT-4 leukemia
ACHN renal = system: ACHN renal
UO-31 renal = system: UO-31 renal
MDA-MB-231 breast = system: MDA-MB-231 breast
SK-MEL-5 melanoma = system: SK-MEL-5 melanoma
RPMI-8226 leukemia = system: RPMI-8226 leukemia
COLO 205 colon = system: COLO 205 colon
HT29 colon = system: HT29 colon
HCT-15 colon = system: HCT-15 colon
UACC-257 melanoma = system: UACC-257 melanoma
SN12C renal = system: SN12C renal
K-562 leukemia = system: K-562 leukemia
HOP-92 NSCLC = system: HOP-92 NSCLC
NCI-H522 lung = system: NCI-H522 lung
SK-OV-3 ovarian = system: SK-OV-3 ovarian
A498 renal = system: A498 renal
SF-268 CNS = system: SF-268 CNS
PC-3 prostate = system: PC-3 prostate
NCI-H226 lung = system: NCI-H226 lung

Row | SMILES | TGI (LOX IMVI melanoma) [µM] | TGI (MOLT-4 leukemia) [µM] | TGI (ACHN renal) [µM] | TGI (UO-31 renal) [µM] | TGI (MDA-MB-231 breast) [µM] | TGI (SK-MEL-5 melanoma) [µM] | TGI (RPMI-8226 leukemia) [µM] | TGI (COLO 205 colon) [µM] | TGI (HT29 colon) [µM] | TGI (HCT-15 colon) [µM] | TGI (UACC-257 melanoma) [µM] | TGI (SN12C renal) [µM] | TGI (K-562 leukemia) [µM] | TGI (HOP-92 NSCLC) [µM] | TGI (NCI-H522 lung) [µM] | TGI (SK-OV-3 ovarian) [µM] | TGI (A498 renal) [µM] | TGI (SF-268 CNS) [µM] | TGI (PC-3 prostate) [µM] | TGI (NCI-H226 lung) [µM]
1 | O=C1OC[C@@H]2Cc3cc4c(cc3[C@H](c3ccc5c(c3)OCO5)[C@@H]12)OCO4 | > 25 | > 25 | > 25 | > 25 | > 25 | > 25 | > 25 | > 25 | > 25 | > 25 | > 25 | > 25 | > 25 | – | – | – | – | – | – | –
2 | CC(=O)Nc1cc(C(=O)Nc2cc(C(=O)N3CC(CCl)c4c3cc(N)c3ccccc43)nn2C)nn1C (configuration not stated) | 1.07 | 0.0687 | 0.0892 | 1.35 | 0.76 | 1.23 | 1.41 | – | 1.21 | 3.22 | 2.09 | 0.0102 | 0.823 | 0.1 | 0.0181 | 5.96 | < 0.0197 | 0.128 | – | –
3 | COC(=O)Cc1cc(O)c(C/C=C(\C)CC/C=C(\C)C(O)C(=O)C=C(C)C)cc1O (configuration not stated) | – | 36.9 | 71 | 46 | 78.3 | 40.4 | 69.6 | 57.7 | 61.3 | – | 77.6 | 58 | 39.1 | 47.7 | 39.8 | 78.8 | – | 40.6 | 87.7 | 51.8
4 | CN(c1ccc(Cl)cc1)S(=O)(=O)c1cccc([N+](=O)[O-])c1 | > 100 | > 100 | > 100 | > 100 | > 100 | 72.8 | > 100 | > 100 | > 100 | > 100 | > 100 | > 100 | > 100 | – | > 100 | > 100 | – | > 100 | > 100 | > 100
5 | COc1ccc(C2CC(=O)CC(c3ccc(OC)cc3)C23C(=O)NC(=O)NC3=O)cc1 (configuration not stated) | > 100 | 64.8 | 78.1 | > 100 | 85 | 68 | – | 89 | > 100 | > 100 | > 100 | 97.9 | > 100 | 78.5 | 60.2 | – | – | > 100 | > 100 | > 100
6 | CCc1nc(N)nc(N)c1-c1ccc(Cl)c(Cl)c1 | > 100 | – | > 100 | > 100 | > 100 | > 100 | > 100 | > 100 | > 100 | > 100 | > 100 | > 100 | – | > 100 | > 100 | > 100 | > 100 | > 100 | > 100 | –
7 | CC(=O)NC1C(OCc2ccccc2)OC(CO)C(O)C1OC(C)C(=O)NC(C)C(=O)NC(CCC(=O)NCCCNc1c2ccccc2nc2cccc([N+](=O)[O-])c12)C(N)=O (configuration not stated) | 27.7 | > 100 | 6.9 | 8.3 | 3.26 | 2.47 | > 100 | 2.34 | > 100 | 7.3 | 4.71 | 11 | 11.1 | 5.8 | 4.05 | 34.7 | 6.11 | 6.32 | – | 11.2
8 | O=C(NCCCCCCNC(=O)c1cccc2ccccc12)Nc1cccc2ccccc12 | > 100 | > 100 | > 100 | > 100 | > 100 | > 100 | > 100 | > 100 | > 100 | > 100 | > 100 | > 100 | > 100 | > 100 | > 100 | – | > 100 | > 100 | > 100 | –
9 | S=C(NCc1ccccc1)c1nc[nH]c1C(=S)NCc1ccccc1 | 17.1 | 25.4 | 7.51 | – | 22.3 | – | 35.6 | 12.9 | 22.7 | 33.6 | 23.4 | 25 | 29.7 | 12.3 | 21.3 | 28.5 | – | 19.8 | 20.4 | 8.1
10 | c1ccc2sc(C3(N4CCCC4)CCCCCC3)cc2c1 | 33.2 | 29.3 | 60.7 | 26 | 31 | 33.9 | – | 30.4 | 19.3 | 56.5 | 31 | 29.2 | 38.5 | 30 | 33.3 | 35 | 32.5 | 35.9 | – | 40.3
11 | O=S1(=O)OCCOS(=O)(=O)C1F | > 100 | > 100 | > 100 | > 100 | – | > 100 | > 100 | > 100 | > 100 | > 100 | > 100 | > 100 | > 100 | – | > 100 | > 100 | – | > 100 | > 100 | > 100
12 | CN(c1ccc(Cl)cc1)S(=O)(=O)c1ccc([N+](=O)[O-])cc1 | > 100 | > 100 | > 100 | > 100 | > 100 | > 100 | > 100 | > 100 | > 100 | > 100 | > 100 | > 100 | > 100 | – | > 100 | > 100 | – | > 100 | > 100 | > 100
13 | COC(C)(C)C1=CCC(C)CC1 (configuration not stated) | – | > 100 | > 100 | > 100 | – | > 100 | > 100 | > 100 | > 100 | > 100 | > 100 | > 100 | – | > 100 | > 100 | > 100 | > 100 | > 100 | > 100 | –
